According to PMC7765321, “Novel Isoniazid-Carborane Hybrids Active In Vitro against Mycobacterium tuberculosis” (Pharmaceuticals, 2020):
Values joined by “and” are separate entries in the source; they are usually repeats but may differ in a detail not shown here. Equal values may be shown once.

test system: Mtb ΔkatG mutant strain; assay type: cell-based, Mycobacterium tuberculosis

Row | Compound | katG MIC50 | katG MIC99
1 | NNC(=O)c1ccncc1 [4 (INH), pyridine-4-carbohydrazide, reference compound] | 1100 µM | 1500 µM
2 | N′-((1,2-dicarba-closo-dodecaboran-1-yl)ethyl)isonicotinohydrazide [Compound 23] | 97.60 µM | 240 µM
3 | N′-((1,2-dicarba-closo-dodecaboran-1-yl)ethylidene)isonicotinohydrazide [Compound 20] | 160 µM | 240 µM
4 | N′-((1,2-dicarba-closo-dodecaboran-1-yl)propanoyl)isonicotinohydrazide [Compound 8] | 150 µM | 300 µM
5 | N′-((1,7-dicarba-closo-dodecaboran-1-yl)ethyl)isonicotinohydrazide [Compound 24] | 81.30 µM | 160 µM
6 | N′-((1,7-dicarba-closo-dodecaboran-1-yl)ethylidene)isonicotinohydrazide [Compound 21] | 160 µM | 240 µM
7 | N′-((1,7-dicarba-closo-dodecaboran-1-yl)methylidene)isonicotinohydrazide [Compound 14] | 260 µM | 340 µM
8 | N′-((1,7-dicarba-closo-dodecaboran-1-yl)propanoyl)isonicotinohydrazide [Compound 9] | 150 µM | 300 µM
9 | N′-((1,12-dicarba-closo-dodecaboran-1-yl)ethyl)isonicotinohydrazide [Compound 25] | 3.25 µM | 24.4 µM and 24.40 µM
10 | N′-((1,12-dicarba-closo-dodecaboran-1-yl)ethylidene)isonicotinohydrazide [Compound 22] | 160 µM | 330 µM
11 | N′-((1,12-dicarba-closo-dodecaboran-1-yl)methylidene)isonicotinohydrazide [Compound 15] | 510 µM | 680 µM
12 | N′-((1,12-dicarba-closo-dodecaboran-1-yl)propanoyl)isonicotinohydrazide [Compound 10] | 150 µM | 300 µM
13 | N′-((7,8-dicarba-nido-undecaboranyl)methylidene)isonicotinohydrazide [Compound 16] | 500 µM | >660 µM
